Results from ChEMBL document CHEMBL1201862, “PubChem BioAssay data set” (2004).
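Assay format: 96-well plates, 48-hour exposure. GI50 = concentration required for 50% inhibition of growth.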 Activity calls are given as the source filed them. Cut-off read from the data, not from the text of the source: active = GI50 up to about 1.1 µM and inactive = higher.

Experiments:
Test in all cases: NCI-60 cell line screen, 48 h
MOLT-4 = test system: MOLT-4
786-0 = test system: 786-0
OVCAR-5 = test system: OVCAR-5
OVCAR-3 = test system: OVCAR-3
BT-549 = test system: BT-549
COLO 205 = test system: COLO 205
OVCAR-4 = test system: OVCAR-4
SK-MEL-28 = test system: SK-MEL-28
CAKI-1 = test system: CAKI-1
SK-OV-3 = test system: SK-OV-3
DU-145 = test system: DU-145
A498 = test system: A498
NCI-H226 = test system: NCI-H226
HL-60 = test system: HL-60
KM12 = test system: KM12
SNB-75 = test system: SNB-75
SF-268 = test system: SF-268
M14 = test system: M14
PC-3 = test system: PC-3
A549 = test system: A549
HCC 2998 = test system: HCC 2998
Malme-3M = test system: Malme-3M
NCI-H23 = test system: NCI-H23
MDA-MB-435 = test system: MDA-MB-435
MDA-N = test system: MDA-N
Hs-578T = test system: Hs-578T
SF-295 = test system: SF-295
NCI-H460 = test system: NCI-H460
SR = test system: SR
SW-620 = test system: SW-620
UACC-62 = test system: UACC-62
HT-29 = test system: HT-29
OVCAR-8 = test system: OVCAR-8
SN12C = test system: SN12C
HOP-62 = test system: HOP-62
SF-539 = test system: SF-539
T47D = test system: T47D
ACHN = test system: ACHN
HCT-15 = test system: HCT-15
UACC-257 = test system: UACC-257
EKVX = test system: EKVX
SK-MEL-2 = test system: SK-MEL-2
TK-10 = test system: TK-10
K562 = test system: K562
HCT-116 = test system: HCT-116
RPMI-8226 = test system: RPMI-8226
CCRF-CEM = test system: CCRF-CEM
LOX IMVI = test system: LOX IMVI
SK-MEL-5 = test system: SK-MEL-5
MDA-MB-231 = test system: MDA-MB-231
U-251 = test system: U-251
IGROV-1 = test system: IGROV-1
SNB-19 = test system: SNB-19
MCF7 = test system: MCF7
UO-31 = test system: UO-31
HOP-92 = test system: HOP-92
NCI/ADR-RES = test system: NCI/ADR-RES
NCI-H522 = test system: NCI-H522
RXF 393 = test system: RXF 393

In the case of Cc1cc(O)c2c(c1O)C(=O)C1=C(C2=O)C(=O)C2C(O)C1C1C(O)CC(O)=C3C(=O)c4c(O)cc(C)c(O)c4C(=O)C321 (stereo unspecified), the GI50 (MOLT-4) is reported as 1.52 µM (inactive), the GI50 (786-0) is reported as 1.71 µM (inactive) and the GI50 (OVCAR-5) is reported as 3.62 µM (inactive). The GI50 (OVCAR-3) was 1.3 µM (inactive), the GI50 (BT-549) was 3.66 µM (inactive) and the GI50 (COLO 205) was 0.834 µM (active). For the same molecule, the GI50 (OVCAR-4) was 6.04 µM (inactive), the GI50 (SK-MEL-28) was 1.55 µM (inactive) and the GI50 (CAKI-1) was 1.75 µM (inactive). For the same molecule, the GI50 (SK-OV-3) was 2.24 µM (inactive), the GI50 (DU-145) was 1.32 µM (inactive) and the GI50 (A498) was 1.27 µM (inactive). For the same molecule, the GI50 (NCI-H226) was 0.885 µM (active), the GI50 (HL-60) was 1.1 µM (active) and the GI50 (KM12) was 0.697 µM (active). The GI50 (SNB-75) was 1.03 µM (active), the GI50 (SF-268) was 2.28 µM (inactive) and the GI50 (M14) was 2.3 µM (inactive). The GI50 (PC-3) was 628 nM (active), the GI50 (A549) was 0.693 µM (active) and the GI50 (HCC 2998) was 1.18 µM (inactive). The GI50 (Malme-3M) was 0.982 µM (active), the GI50 (NCI-H23) was 2.73 µM (inactive) and the GI50 (MDA-MB-435) was 1.36 µM (inactive). For the same molecule, the GI50 (MDA-N) was 1.44 µM (inactive), the GI50 (Hs-578T) was 0.553 µM (active) and the GI50 (SF-295) was 0.386 µM (active). For the same molecule, the GI50 (NCI-H460) was 1.46 µM (inactive), the GI50 (SR) was 2.36 µM (inactive) and the GI50 (SW-620) was 1.45 µM (inactive). The GI50 (UACC-62) was 1.12 µM (active), the GI50 (HT-29) was 0.555 µM (active) and the GI50 (OVCAR-8) was 1.06 µM (active). The GI50 (SN12C) was 2.12 µM (inactive), the GI50 (HOP-62) was 2.48 µM (inactive) and the GI50 (SF-539) was 1.94 µM (inactive). For the same molecule, the GI50 (T47D) was 1.24 µM (inactive), the GI50 (ACHN) was 1.35 µM (inactive) and the GI50 (HCT-15) was 2.04 µM. For the same molecule, the GI50 (UACC-257) was 0.789 µM (active), the GI50 (EKVX) was 1.98 µM (inactive) and the GI50 (SK-MEL-2) was 1.73 µM (inactive). The GI50 (TK-10) was 3.14 µM (inactive), the GI50 (K562) was 0.506 µM (active) and the GI50 (HCT-116) was 0.541 µM (active). For the same molecule, the GI50 (RPMI-8226) was 164 nM (active), the GI50 (CCRF-CEM) was 0.577 µM (active) and the GI50 (LOX IMVI) was 1.57 µM (inactive). The GI50 (SK-MEL-5) was 1.65 µM (inactive), the GI50 (MDA-MB-231) was 2.64 µM (inactive) and the GI50 (U-251) was 0.658 µM (active). For the same molecule, the GI50 (IGROV-1) was 2.36 µM (inactive), the GI50 (SNB-19) was 1.2 µM (inactive) and the GI50 (MCF7) was 2.62 µM (inactive).

With Cc1c2c(c(C)c3c4c(oc13)CCCC4)C=NCC2 the GI50 (UO-31) was 13.1 µM (inactive), the GI50 (MOLT-4) was 7.89 µM (inactive) and the GI50 (HOP-92) was 11.5 µM (inactive). The GI50 (786-0) was 35.2 µM (inactive), the GI50 (OVCAR-5) was 16.8 µM (inactive) and the GI50 (OVCAR-3) was 14.9 µM (inactive). For the same molecule, the GI50 (BT-549) was 16.8 µM (inactive), the GI50 (COLO 205) was 19.5 µM (inactive) and the GI50 (OVCAR-4) was 22.3 µM (inactive). For the same molecule, the GI50 (NCI/ADR-RES) was 15.4 µM (inactive), the GI50 (NCI-H522) was 16 µM (inactive) and the GI50 (SK-MEL-28) was 18.9 µM (inactive). For the same molecule, the GI50 (CAKI-1) was 13.2 µM (inactive), the GI50 (SK-OV-3) was 20.7 µM (inactive) and the GI50 (DU-145) was 15 µM (inactive). For the same molecule, the GI50 (A498) was 17 µM (inactive), the GI50 (NCI-H226) was 14.2 µM (inactive) and the GI50 (HL-60) was 19.7 µM (inactive). The GI50 (KM12) was 16.1 µM (inactive), the GI50 (SNB-75) was 15.8 µM (inactive) and the GI50 (SF-268) was 20.2 µM (inactive). The GI50 (M14) was 20.2 µM (inactive), the GI50 (A549) was 17 µM (inactive) and the GI50 (HCC 2998) was 21.1 µM (inactive). The GI50 (Malme-3M) was 16 µM (inactive), the GI50 (NCI-H23) was 16.2 µM (inactive) and the GI50 (MDA-MB-435) was 14.4 µM (inactive). The GI50 (RXF 393) was 3.66 µM (inactive), the GI50 (Hs-578T) was 17 µM (inactive) and the GI50 (SF-295) was 16.1 µM (inactive). The GI50 (NCI-H460) was 15.8 µM (inactive), the GI50 (SR) was 6.58 µM (inactive) and the GI50 (SW-620) was 21.3 µM (inactive). For the same molecule, the GI50 (UACC-62) was 15 µM (inactive), the GI50 (HT-29) was 6.64 µM (inactive) and the GI50 (OVCAR-8) was 10.6 µM (inactive). The GI50 (SN12C) was 15.8 µM (inactive), the GI50 (HOP-62) was 32.2 µM (inactive) and the GI50 (SF-539) was 15.2 µM (inactive). For the same molecule, the GI50 (T47D) was 35.6 µM (inactive), the GI50 (ACHN) was 15.8 µM (inactive) and the GI50 (HCT-15) was 13.9 µM. For the same molecule, the GI50 (UACC-257) was 14.7 µM (inactive), the GI50 (EKVX) was 12.7 µM (inactive) and the GI50 (SK-MEL-2) was 17.1 µM (inactive). For the same molecule, the GI50 (TK-10) was 12.1 µM (inactive), the GI50 (K562) was 11.1 µM (inactive) and the GI50 (HCT-116) was 14.9 µM (inactive). The GI50 (RPMI-8226) was 818 nM (active), the GI50 (CCRF-CEM) was 12.1 µM (inactive) and the GI50 (LOX IMVI) was 20.5 µM (inactive). For the same molecule, the GI50 (SK-MEL-5) was 14.9 µM (inactive), the GI50 (MDA-MB-231) was 16.4 µM (inactive) and the GI50 (U-251) was 13.1 µM (inactive). The GI50 (IGROV-1) was 13.6 µM (inactive), the GI50 (SNB-19) was 22.8 µM (inactive) and the GI50 (MCF7) was 16.1 µM (inactive).
